Values joined by “and” are separate entries in the source; they are usually repeats but may differ in a detail not shown here. Equal values may be shown once.
Key:
3T3-L1 adipocytes = assay: Glycerol release from differentiated 3T3-L1 adipocytes (adipolysis); assay type: cell-based, mouse; details: 1 umol/L PF vs media without PF, 7th day
Excerpt: The 3T3-L1 cell line is an accepted model by those of skill in the art for natural fat loss. This cell line is a substrain of Swiss 3T3 mouse cell line 3T3-L1. This cell line propagated under normal conditions has a fibroblastic phenotype. However, when treated with a combination of dexamethasone, isobutylmethylxanthine (a non-specific inhibitor of phosphodiesterases) (IBMX) and insulin, 3T3 cells adopt a rounded phenotype and accumulate lipids intracellularly in the form of fat droplets. Differentiated 3T3-L1 adipocytes were cultured in media containing 1 umol/L PF as test group, and media without PF as control. As a result of lipolysis activity, glycerol will be generated as a result of triglyceride breakdown and released into the extracellular space. Glycerol content from 3T3-L1 adipocyte cell culture media may therefore provide an indicator of adipolysis.

[1] = Fat reduction with PF/azone creme and low current in patients; assay type: in vivo, human
Procedure: Concentration of PF included into the topical preparation: 0.2 mg to 0.3 mg of PF were dissolved in 1 ml of azone liquid.
A low current of […] is then passed through pads placed on the skin of the desired treatment area which then drives the PF through the skin into the adipose tissues, thus allowing the PF to come in contact with the fat cells.
The present preparations may be provided in the form of a creme containing 1 ml of PF at a concentration of 1 mmol mixed with 1 ml of azone which is then massaged into the target area. Azone has been extensively studied using a range of permeants. […] This process leads to increased lipid fluidity and enhanced drug diffusion. This is the reason PF was mixed with azone. Furthermore, a low current is then passed through the tissue area, which then drives the PF through the skin into the adipose tissues. PF may in this way come in contact with fat cells. The clinical results are show below and the details of each patient is documented.

[2] = Blood indices before and after PF treatment in patients; assay type: in vivo, human; details: before vs after treatment with PF
[3] = tested on: Hormone sensitive lipase (HSL); assay: Semi-quantitative RT-PCR of HSL expression in 3T3-L1 adipocytes; assay type: cell-based, mouse; details: 1 mol/L PF, from the third day after exposure
Procedure: 3T3-L1 adipocytes were cultured in medium containing […] PF as a test group and medium only as the control group. Total RNA was extracted and reverse transcribed to cDNA employing conventional methods known to those of skill in the art. Primers used for polymerase chain reaction (PCR) amplification of mouse HSL primers were selected based on published sequence (NM_010719) (expected PCR fragment: 409 bp): For semi-quantitative analysis, the amplification cycles were chosen within the linear range (HSL: 24 cycles with […] at 58° C., GAPDH: 21 cycles with […] at 58° C.).

intracellular cyclic AMP = assay: Intracellular cyclic AMP by ELISA in 3T3-L1 adipocytes; assay type: cell-based, mouse; details: PF, vs control
Procedure: 3T3-L1 adipocytes were cultured in medium containing […] PF as test group and medium only as control. Cells were lysed by adding 0.1 N HCL, and intracellular cyclic AMP was measured by ELISA.

[4] = human, in vivo
Procedure: For Regular Injections: After sterilization of the surface area with 74% ethanol, topical application of lignocaine ointment or lidocaine gel was applied for 5 minutes to numb the skin where the injections are to take place.
For Booster Injection: The patient is prepared using 1 ml of 2% lidocaine to anaesthetize the site of entry of the large needle. This way, the procedure is almost painless. 3-5 minutes later, the booster injection is given slowly over a 3 minute period.
Patients are forewarned that bruising may occur due to the injections. Thus, some bruising in a patient may be expected. […] The bruising, usually disappears within 1 week. In addition, redness and tenderness at the injection site of the booster, is very common. Redness lasts for a couple of hours and the tenderness lasts for a couple of days. Bruising, is encountered more with the booster than the regular injections, but also disappears within a week or so. Another observation is fatigue as a result of treatment in some patients. […] In addition, a very slight rise in temperature, to about 37.1 or 37.2 for a few hours, was noted.

[5] = per patient, number of times as in table

C[C@@]12C[C@@]3(O)O[C@@H](O1)[C@]1(COC(=O)c4ccccc4)[C@H]3C[C@@]12O[C@@H]1O[C@H](CO)[C@@H](O)[C@H](O)[C@H]1O [PF, paeoniflorin]
release of glycerol (3T3-L1 adipocytes): increased the release of glycerol significantly | AMOUNT OF REDUCTION IN CM, each side of the upper thigh ([1]; patient #3, 6 times): 2 cm from each side of the upper | AMOUNT OF REDUCTION IN CM, left buttock ([1]; patient #4, 7 times): 9 cm from the left buttock | AMOUNT OF REDUCTION IN CM, right buttock ([1]; patient #4, 7 times): 8 cm from the right buttock & | AMOUNT OF REDUCTION IN CM, each leg below the knees ([1]; patient #5, 8 times): 9 cm and 10 cm | AMOUNT OF REDUCTION IN CM, left thigh ([1]; patient #7, 9 times): 6 cm | AMOUNT OF REDUCTION IN CM, right thigh ([1]; patient #7, 9 times): 8 cm | AMOUNT OF REDUCTION, bra size ([1]; patient #8, 30 times): 1.5 size in bra size | AMOUNT OF REDUCTION IN CM, love handles ([1]; patient #12, 8 times): 10 cm from love handles and | AMOUNT OF REDUCTION IN CM, above and below the umbilicus [1, 5]: 3.5 cm above and below the | AMOUNT OF REDUCTION IN CM, above the umbilicus [1, 5]: 7 cm and 6 cm and 10 cm above the umbilicus, and 9 cm above the umbilicus. 9 cm | AMOUNT OF REDUCTION IN CM, below the umbilicus [1, 5]: 9 cm and 9.5 cm below the umbilicus and 6 cm below the umbilicus | AMOUNT OF REDUCTION IN CM, midsection [1, 5]: 10 cm and 5 cm from the waist and 5 cm and 9 cm above the umbilicus. 9 cm | blood sugar levels [2]: decreased upon treatment | expression of HSL [3]: increased the expression of HSL | intracellular cAMP (intracellular cyclic AMP; first day / 24 hours): significantly increased | intracellular cAMP (intracellular cyclic AMP; third day / 72 hours): significantly increased | bruising [4]: bruising was observed | diarrhea [4]: No diarrhea was observed | dizziness [4]: observed in a few patients | fatigue [4]: Two patients suffered from fatigue | redness and tenderness at the injection site [4]: very common | rise in temperature [4]: about 37.1 or 37.2 | stool [4]: softer stool was reported | time until bruising disappears [4]: ≤ 1 week

Source: US9901591B2, “Paeoniflorin preparations and uses thereof for fat reduction” (priority 2008, dated 2018)
